Results published in US9988371B2, “Benzimidazole analogues and related methods” (The Arizona Board of Regents, on Behalf of the University …, priority 2014, dated 2018).
pIC50: −log10 of the molar value.

What was measured:
[1] = PK study in rats; assay type: in vivo
Description: (§1) For PK studies of Pz-1 in animals, a solution formulation for oral administration was created in 500 μL of polysorbate 80, 500 μL of EtOH, and 1.0 mL of pH 2 buffer. For the toxicity studies, a suspension formulation was developed in tween 20 (20%) and xanthan gum (0.125%).
T112 (3-4 hrs) in rats was in line with T1/2 in mice (4.2 hrs).

[2] = molecular target: CYP2D6 (Homo sapiens, UniProt P10635); assay: CYP inhibition; assay type: in vitro ADME; conditions: read-out: CYP 2D6 IC50
Chain of CYP2D6 (P10635 whole entry): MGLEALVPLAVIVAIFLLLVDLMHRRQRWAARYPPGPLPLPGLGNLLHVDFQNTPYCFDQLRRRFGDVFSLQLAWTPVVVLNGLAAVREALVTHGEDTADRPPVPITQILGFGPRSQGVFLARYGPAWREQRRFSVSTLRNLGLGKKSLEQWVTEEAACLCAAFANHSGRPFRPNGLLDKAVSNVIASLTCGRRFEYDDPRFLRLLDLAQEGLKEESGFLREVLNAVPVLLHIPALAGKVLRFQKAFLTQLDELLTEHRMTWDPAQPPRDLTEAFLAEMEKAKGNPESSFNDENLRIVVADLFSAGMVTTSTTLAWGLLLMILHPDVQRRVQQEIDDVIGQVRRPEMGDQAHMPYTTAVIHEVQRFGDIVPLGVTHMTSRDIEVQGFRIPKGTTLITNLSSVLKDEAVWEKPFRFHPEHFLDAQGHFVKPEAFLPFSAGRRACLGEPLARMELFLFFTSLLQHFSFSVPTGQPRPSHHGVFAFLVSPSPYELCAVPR

[3] = week-long toxicology study in mice; assay type: in vivo
Description: as §1
Similarly, the toxicity markers including phosphorus, creatinine, total bilirubin, GGT, ALP, glucose, total protein, albumin, globulin, calcium, cholesterol, and BUN were not impacted at any dose. […] At the highest dose, the concentration of ALT was slightly above the normal ALT level of 80 U/L, but below the toxicity threshold of 200 U/L. ALT levels can easily be monitored and can serve as a reversible toxicity marker in the clinical setting.

[4] = molecular target: VEGFR2 (Homo sapiens, UniProt P35968); assay: VEGFR2 autophosphorylation immunoblot in HEK293 cells stimulated with VEGF; assay type: cell-based; design: expressed in transfected cells; host or cells: HEK293
Chain of VEGFR2 (P35968 20-1356): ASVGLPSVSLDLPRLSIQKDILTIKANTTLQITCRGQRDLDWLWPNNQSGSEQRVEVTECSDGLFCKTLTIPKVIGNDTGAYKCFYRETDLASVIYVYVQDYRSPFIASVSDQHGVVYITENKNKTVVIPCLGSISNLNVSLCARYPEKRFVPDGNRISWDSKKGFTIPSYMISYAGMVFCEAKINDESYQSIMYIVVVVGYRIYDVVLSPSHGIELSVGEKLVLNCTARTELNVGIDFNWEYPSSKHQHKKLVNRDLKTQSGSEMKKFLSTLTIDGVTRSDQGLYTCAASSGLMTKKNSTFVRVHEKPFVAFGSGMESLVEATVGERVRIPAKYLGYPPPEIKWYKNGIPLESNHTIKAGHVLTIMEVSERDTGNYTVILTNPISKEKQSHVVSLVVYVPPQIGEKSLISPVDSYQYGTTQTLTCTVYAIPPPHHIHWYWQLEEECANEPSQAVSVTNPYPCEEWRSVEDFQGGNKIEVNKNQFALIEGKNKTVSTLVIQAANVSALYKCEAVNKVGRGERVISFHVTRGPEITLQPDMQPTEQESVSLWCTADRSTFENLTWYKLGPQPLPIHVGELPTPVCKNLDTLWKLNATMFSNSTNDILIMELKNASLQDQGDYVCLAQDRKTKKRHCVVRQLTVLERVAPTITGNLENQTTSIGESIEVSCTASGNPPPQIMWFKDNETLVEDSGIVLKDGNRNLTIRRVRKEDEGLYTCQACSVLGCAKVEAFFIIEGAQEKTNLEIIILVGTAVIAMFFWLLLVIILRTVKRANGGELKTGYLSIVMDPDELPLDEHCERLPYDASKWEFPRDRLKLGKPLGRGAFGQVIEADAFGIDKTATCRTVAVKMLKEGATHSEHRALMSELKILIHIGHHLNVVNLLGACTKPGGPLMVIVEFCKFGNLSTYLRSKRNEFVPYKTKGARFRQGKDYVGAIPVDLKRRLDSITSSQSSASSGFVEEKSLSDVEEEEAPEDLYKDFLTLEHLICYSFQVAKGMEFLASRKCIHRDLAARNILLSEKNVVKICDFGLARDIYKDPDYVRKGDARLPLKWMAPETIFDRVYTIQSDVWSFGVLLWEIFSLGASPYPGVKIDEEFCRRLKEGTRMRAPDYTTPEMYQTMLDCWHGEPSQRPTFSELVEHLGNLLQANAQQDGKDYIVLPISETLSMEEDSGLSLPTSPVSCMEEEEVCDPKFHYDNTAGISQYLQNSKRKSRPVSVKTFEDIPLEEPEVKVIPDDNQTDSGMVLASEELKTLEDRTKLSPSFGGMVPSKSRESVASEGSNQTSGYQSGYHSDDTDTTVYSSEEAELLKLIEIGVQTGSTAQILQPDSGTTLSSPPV
Description: FIG. 4: Photograph of blot showing inhibition of VEGFR2 phosphorylation ectopically expressed in HEK293 cells by indicated doses of Pz-1 or vehicle (NT: not treated). HEK293 cells were transiently transfected with vector expressing VEGFR2. 36 hr following transfection, cells were serum-starved for 12 hr, treated for 2 hr with indicated concentrations of Pz-1 and finally treated with VEGF-A (100 ng/ml) for 15 min. 50 μg of total cell lysates were subjected to immunoblotting with anti-phospho-Y1175 (αpVEGFR2) VEGFR2 antibodies. The blot was normalized using anti-VEGFR2 (αVEGFR2) antibody.
The inhibition of RET auto-phosphorylation by Pz-1 was measured in several different cell lines including NIH3T3 fibroblasts expressing RET/C634Y or RET/M918T, TT expressing RET/C634W (MTC), Nthy-ory-3-1 (thyroid, non-transformed with RET; negative control), HEK293/RET/PTC1 (CCDC6-RET that can be found in PTC & lung cancer), HEK293/RET-KIF5B (that can be found in lung cancer), HEK293/RET/PTC3 (NCOA4-RET, that can be found in PTC & lung cancer), and HEK293 transfected with RET/C634R-V804M (FIGS. 1-3). HEK293 cells were transiently transfected with expression vectors comprising the desired mutant. […]
Protein lysates were prepared according to standard procedures. […] Immune complexes were detected with the enhanced chemiluminescence kit (Amersham Pharmacia Biotech, Little Chalfort, UK). […]

Cn1cc(-c2ccc3c(c2)ncn3-c2ccc(CC(=O)Nc3cc(C(C)(C)C)on3)cc2)cn1 [Pz-1, N-(5-(tert-butyl)isoxazol-3-yl)-2-(4-(5-(1-methyl-1H-pyrazol-4-yl)-1H-benzo[d]imidazol-1-yl)phenyl)acetamide]
T112 [1]: 3 to 4 h | volume distribution [1]: 2.02 L/kg | AUC ([1]; 1 mg/kg (IV)): 1.9 µg/h/mL | AUC ([1]; 10 mg/kg (oral)): 19 µg/h/mL | bioavaliblity ([1]; oral): 97% | half-life ([1]; rat, in vivo, 10 mg/kg, oral study, read-out: elimination half-life (converted)): 4.2 h | clearance ([1]; rat, in vivo, oral, 10 mg/kg): 9 mL/min/kg | pIC50 [2]: 4.86 | ALT in blood ([3]; 10 mg/kg): 22 U/L | ALT in blood ([3]; 30 mg/kg): 51 U/L | ALT in blood ([3]; 100 mg/kg): 96 U/L | toxicity markers (phosphorus, creatinine, total bilirubin, GGT, ALP, glucose, total protein, albumin, globulin, calcium, cholesterol, BUN) ([3]; any dose): not impacted | organ pathological analysis in heart, kidney, and liver ([3]; even at 100 mg/kg): did not show adverse effects | toxicity ([3]; one week, daily dose escalation from 10 mg/kg to 100 mg/kg, suspension formulation): no significant toxicity | inhibition of VEGFR2 autophosphorylation ([4]; 1 nM, HEK 293 transiently transfected with VEGFR2, stimulated with VEGF): strongly inhibited | inhibition of VEGFR2 auto-phosphorylation ([4]; nanomolar concentrations): 90%
